Assay results taken from ChEMBL document CHEMBL1201862, “PubChem BioAssay data set” (2004).
Activity calls are given as the source filed them.

How the values were obtained:
[1] = biological target: T1, Tyrosine-protein phosphatase non-receptor type 7 (Homo sapiens, UniProt P35236); experiment: HTS HePTP Fluorescent Assay using OMFP substrate for In Vitro dose response studies. [Related pubchem assays (depositor defined):AID1059, AID1077, AID1784, AID2068, AID2085, AID435032, AID521]; format: functional
T1 sequence (P35236 whole entry): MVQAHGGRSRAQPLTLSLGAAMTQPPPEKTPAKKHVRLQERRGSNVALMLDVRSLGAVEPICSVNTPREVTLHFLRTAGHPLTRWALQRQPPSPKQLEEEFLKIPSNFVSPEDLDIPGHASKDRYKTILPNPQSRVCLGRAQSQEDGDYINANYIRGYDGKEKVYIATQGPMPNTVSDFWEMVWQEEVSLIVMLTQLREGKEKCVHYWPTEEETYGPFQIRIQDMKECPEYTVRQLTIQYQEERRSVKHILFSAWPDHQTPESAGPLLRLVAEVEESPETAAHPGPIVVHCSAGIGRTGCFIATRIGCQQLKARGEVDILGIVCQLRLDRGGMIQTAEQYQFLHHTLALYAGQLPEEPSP

[2] = biological target: DNA (cytosine-5)-methyltransferase 1 (Homo sapiens, UniProt P26358); experiment: inhibition of DNA methylation by DNMT1 – biochemical, fluorescent molecular beacon, confirmation (AID 602386); format: functional
[3] = biological target: T2, Tyrosine-protein phosphatase non-receptor type 22 (Homo sapiens, UniProt Q9Y2R2); experiment: PTPN22 lymphoid phosphatase activity blockers – biochemical, fluorescence intensity, uHTS (AID 1779)
T2 sequence (Q9Y2R2 whole entry): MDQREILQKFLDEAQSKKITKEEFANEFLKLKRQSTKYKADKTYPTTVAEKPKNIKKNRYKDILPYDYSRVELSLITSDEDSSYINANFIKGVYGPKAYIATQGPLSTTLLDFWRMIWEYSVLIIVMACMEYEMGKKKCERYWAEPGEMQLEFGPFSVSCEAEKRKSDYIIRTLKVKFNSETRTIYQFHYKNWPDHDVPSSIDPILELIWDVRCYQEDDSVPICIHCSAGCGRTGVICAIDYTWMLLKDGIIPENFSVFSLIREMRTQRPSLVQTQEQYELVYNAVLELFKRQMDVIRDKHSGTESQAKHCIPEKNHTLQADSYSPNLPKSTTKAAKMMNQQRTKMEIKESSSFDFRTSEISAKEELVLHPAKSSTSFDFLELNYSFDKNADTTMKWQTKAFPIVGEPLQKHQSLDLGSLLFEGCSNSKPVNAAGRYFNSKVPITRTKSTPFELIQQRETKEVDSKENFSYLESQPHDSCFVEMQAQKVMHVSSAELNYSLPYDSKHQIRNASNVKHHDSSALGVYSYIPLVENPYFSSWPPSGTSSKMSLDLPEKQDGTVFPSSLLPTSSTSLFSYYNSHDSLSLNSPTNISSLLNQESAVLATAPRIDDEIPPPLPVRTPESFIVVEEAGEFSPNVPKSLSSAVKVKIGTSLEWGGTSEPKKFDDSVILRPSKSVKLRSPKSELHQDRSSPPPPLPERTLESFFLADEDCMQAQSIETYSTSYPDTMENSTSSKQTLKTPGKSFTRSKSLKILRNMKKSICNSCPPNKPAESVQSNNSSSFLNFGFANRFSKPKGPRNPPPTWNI

[4] = biological target: T1, Tyrosine-protein phosphatase non-receptor type 7; format: functional
[5] = biological target: T2, Tyrosine-protein phosphatase non-receptor type 22; experiment: LYP1 Fluorescent Assay using OMFP substrate for In Vitro dose response studies. [Related pubchem assays (depositor defined):AID1779, AID1784, AID435024]
[6] = biological target: T2, Tyrosine-protein phosphatase non-receptor type 22; format: functional
[7] = biological target: T2, Tyrosine-protein phosphatase non-receptor type 22; format: functional; remark: listed apart in the source
[8] = biological target: Serine/threonine-protein phosphatase (Homo sapiens, UniProt Q9BPW0); experiment: Counterscreen for inhibitors of PP1: fluorescence-based biochemical high throughput dose response assay to identify inhibitors of Protein Phosphatase 5 (PP5). [Related pubchem assays: 2034 (Summary (PP5 inhibitors)), 1987 (PP5 inhibitors in singlate), 2235 (PP1 inhibitors in singlate)]
[9] = biological target: Serine/threonine-protein phosphatase PP1-alpha catalytic subunit (Homo sapiens, UniProt P62136); experiment: inhibition of protein phosphatase 1 activity – biochemical, fluorescence, dose response (AID 2403);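 also: phosphatase turnover of OMFP into fluorescent 3-O-methylfluorescein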
[10] = biological target: T3, Apoptotic protease-activating factor 1 (Homo sapiens, UniProt O14727); experiment: activation of Apaf-1 mediated apoptosis – fluorescent, uHTS hits, dose response (AID 588554); format: functional
T3 sequence (O14727 whole entry): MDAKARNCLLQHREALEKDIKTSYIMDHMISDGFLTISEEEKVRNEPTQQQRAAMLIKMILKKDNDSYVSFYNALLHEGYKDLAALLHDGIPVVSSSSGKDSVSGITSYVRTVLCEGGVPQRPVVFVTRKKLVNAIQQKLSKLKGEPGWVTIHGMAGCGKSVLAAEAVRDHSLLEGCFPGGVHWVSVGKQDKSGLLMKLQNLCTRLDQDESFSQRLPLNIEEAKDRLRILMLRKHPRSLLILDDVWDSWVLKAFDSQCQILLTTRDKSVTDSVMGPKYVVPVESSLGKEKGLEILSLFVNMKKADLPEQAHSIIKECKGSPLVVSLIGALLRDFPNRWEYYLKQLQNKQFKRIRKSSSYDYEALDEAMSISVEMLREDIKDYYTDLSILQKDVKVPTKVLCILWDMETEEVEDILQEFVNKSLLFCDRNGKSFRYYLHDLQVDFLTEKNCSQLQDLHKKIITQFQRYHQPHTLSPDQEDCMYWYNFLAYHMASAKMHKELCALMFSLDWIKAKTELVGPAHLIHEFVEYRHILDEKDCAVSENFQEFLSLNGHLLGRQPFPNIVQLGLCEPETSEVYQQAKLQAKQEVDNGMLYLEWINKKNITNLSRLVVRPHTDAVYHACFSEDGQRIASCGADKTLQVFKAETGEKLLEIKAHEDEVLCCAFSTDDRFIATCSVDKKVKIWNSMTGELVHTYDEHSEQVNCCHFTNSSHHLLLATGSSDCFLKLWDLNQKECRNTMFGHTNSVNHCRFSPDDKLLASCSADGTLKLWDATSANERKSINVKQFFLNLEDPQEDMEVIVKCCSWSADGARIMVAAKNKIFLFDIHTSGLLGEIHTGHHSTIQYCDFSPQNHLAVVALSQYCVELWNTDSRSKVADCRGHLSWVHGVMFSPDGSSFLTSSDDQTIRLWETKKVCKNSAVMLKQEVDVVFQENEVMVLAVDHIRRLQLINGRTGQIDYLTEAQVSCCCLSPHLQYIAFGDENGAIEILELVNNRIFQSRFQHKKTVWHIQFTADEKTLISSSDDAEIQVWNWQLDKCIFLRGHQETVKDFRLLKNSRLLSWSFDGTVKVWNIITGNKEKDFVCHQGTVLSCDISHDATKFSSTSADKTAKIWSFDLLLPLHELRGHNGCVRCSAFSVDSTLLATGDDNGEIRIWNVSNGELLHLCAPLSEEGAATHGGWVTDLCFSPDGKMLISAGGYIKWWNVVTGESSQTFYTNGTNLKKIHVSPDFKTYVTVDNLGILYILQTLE

[11] = biological target: Beta-adrenergic receptor kinase 1 (Homo sapiens, UniProt P25098); experiment: aptamer displacement from bead-bound GRK2 – biochemical, cherry pick 1, bead flow cytometry, dose response (AID 504500)
ORF 73 = ORF 73 (Human herpesvirus 8, UniProt O40947); experiment: KSHV LANA DNA-binding disruption – biochemical, fluorescence polarization, cherry-picked samples, dose response (AID 504725); design: species or system Human gammaherpesvirus 8;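 also: fluorescence polarization of a labeled DNA duplex reporting LANA DNA binding; potency is for inhibitors that block LANA binding to the DNA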
[12] = biological target: T4, Carboxy-terminal domain RNA polymerase II polypeptide A small phosphatase 1 (Homo sapiens, UniProt Q9GZU7); experiment: CTDSP1 inhibitors, concentration-response, biochemical, absorbance readout, ultra-high-throughput screen actives (AID 540297); format: functional
T4 sequence (Q9GZU7 whole entry): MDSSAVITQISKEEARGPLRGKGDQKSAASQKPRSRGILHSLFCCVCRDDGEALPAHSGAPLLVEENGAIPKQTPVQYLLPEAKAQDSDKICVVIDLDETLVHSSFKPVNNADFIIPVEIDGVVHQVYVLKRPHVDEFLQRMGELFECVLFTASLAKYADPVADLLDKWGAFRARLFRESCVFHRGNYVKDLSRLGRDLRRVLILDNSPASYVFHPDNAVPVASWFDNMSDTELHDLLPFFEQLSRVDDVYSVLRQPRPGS

DNA topoisomerase = DNA topoisomerase (Yersinia pestis, UniProt A0A2S9PM60); experiment: Yersinia topoisomerase I cleavage product accumulation – biochemical, cherry-pick, dose response (AID 588525)
Sequence of DNA topoisomerase (A0A2S9PM60 whole entry): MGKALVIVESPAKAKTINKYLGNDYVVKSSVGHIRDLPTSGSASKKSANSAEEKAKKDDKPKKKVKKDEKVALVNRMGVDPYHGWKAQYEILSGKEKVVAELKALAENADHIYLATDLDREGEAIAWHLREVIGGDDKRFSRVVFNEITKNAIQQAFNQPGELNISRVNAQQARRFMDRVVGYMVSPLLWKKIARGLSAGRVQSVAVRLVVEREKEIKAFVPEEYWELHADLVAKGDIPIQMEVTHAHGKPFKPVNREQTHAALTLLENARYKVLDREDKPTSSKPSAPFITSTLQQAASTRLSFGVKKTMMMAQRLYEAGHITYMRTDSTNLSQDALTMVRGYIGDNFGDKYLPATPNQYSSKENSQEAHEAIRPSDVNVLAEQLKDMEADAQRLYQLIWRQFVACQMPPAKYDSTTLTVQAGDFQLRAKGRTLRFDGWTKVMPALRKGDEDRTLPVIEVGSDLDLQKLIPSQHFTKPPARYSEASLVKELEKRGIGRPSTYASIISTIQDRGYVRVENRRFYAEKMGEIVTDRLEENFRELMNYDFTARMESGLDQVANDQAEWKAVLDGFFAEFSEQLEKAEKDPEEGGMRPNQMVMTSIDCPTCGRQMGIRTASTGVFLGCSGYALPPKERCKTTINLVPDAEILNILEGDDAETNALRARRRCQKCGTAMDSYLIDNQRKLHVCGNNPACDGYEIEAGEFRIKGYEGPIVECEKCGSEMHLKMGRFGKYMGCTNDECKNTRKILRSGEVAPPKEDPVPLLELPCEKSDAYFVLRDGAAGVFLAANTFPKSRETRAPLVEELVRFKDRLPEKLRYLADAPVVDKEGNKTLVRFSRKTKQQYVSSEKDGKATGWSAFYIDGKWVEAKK

Sequence of ORF 73 (O40947 whole entry, the tested form may be a part): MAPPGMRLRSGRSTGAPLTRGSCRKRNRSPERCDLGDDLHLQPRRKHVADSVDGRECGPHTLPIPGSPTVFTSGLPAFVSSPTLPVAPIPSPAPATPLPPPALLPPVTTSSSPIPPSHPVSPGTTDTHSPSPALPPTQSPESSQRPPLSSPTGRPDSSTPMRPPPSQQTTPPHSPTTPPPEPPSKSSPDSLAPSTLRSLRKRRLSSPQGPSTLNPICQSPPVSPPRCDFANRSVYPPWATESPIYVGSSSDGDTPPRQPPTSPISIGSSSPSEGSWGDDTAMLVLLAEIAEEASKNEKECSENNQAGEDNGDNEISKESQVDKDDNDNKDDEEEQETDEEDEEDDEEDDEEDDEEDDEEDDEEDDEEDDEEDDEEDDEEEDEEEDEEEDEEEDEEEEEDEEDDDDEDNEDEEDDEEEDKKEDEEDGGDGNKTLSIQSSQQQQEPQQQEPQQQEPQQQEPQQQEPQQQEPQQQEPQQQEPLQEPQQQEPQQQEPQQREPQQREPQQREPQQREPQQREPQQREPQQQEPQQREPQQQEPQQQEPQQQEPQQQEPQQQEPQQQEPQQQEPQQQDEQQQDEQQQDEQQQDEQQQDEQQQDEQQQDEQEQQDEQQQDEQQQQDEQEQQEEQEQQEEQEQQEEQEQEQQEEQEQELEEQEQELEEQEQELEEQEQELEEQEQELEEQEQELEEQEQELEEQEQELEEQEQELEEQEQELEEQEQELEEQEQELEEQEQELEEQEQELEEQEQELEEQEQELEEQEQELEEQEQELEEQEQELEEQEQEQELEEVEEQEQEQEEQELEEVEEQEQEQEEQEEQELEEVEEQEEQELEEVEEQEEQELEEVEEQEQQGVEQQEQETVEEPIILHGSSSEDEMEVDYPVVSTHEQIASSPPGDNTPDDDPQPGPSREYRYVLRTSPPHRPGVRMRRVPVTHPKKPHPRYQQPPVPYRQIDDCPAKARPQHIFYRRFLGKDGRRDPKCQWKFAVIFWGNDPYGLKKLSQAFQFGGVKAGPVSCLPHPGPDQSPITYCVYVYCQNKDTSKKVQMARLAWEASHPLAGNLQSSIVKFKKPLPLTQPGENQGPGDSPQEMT
Sequence of Beta-adrenergic receptor kinase 1 (P25098 whole entry): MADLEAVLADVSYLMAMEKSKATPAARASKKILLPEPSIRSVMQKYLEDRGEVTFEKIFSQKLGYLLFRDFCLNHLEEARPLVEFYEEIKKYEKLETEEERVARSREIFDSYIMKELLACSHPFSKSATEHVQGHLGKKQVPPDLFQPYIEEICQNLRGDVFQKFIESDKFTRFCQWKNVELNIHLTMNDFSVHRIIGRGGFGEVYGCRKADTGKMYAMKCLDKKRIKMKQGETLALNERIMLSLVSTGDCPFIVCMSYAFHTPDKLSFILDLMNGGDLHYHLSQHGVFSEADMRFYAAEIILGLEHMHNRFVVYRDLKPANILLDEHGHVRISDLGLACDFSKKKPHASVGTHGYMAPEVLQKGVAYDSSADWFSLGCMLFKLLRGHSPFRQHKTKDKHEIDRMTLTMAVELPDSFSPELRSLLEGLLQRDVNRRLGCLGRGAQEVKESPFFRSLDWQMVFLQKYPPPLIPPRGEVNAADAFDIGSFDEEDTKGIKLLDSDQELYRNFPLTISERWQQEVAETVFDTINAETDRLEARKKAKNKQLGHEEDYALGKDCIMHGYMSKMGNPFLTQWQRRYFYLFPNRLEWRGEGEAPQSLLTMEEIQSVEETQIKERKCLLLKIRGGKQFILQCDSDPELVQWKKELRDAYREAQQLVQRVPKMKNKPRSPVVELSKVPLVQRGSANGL
Sequence of Serine/threonine-protein phosphatase PP1-alpha catalytic subunit (P62136 whole entry): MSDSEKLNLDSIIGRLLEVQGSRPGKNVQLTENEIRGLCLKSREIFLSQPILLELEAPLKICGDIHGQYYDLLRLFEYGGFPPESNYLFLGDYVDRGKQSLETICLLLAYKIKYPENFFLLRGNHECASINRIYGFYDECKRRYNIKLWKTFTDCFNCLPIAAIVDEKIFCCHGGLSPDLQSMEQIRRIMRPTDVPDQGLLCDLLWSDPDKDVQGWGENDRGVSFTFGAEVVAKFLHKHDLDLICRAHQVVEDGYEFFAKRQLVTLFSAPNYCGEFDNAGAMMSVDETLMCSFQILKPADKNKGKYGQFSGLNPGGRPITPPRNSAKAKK
Sequence of Serine/threonine-protein phosphatase (Q9BPW0 whole entry): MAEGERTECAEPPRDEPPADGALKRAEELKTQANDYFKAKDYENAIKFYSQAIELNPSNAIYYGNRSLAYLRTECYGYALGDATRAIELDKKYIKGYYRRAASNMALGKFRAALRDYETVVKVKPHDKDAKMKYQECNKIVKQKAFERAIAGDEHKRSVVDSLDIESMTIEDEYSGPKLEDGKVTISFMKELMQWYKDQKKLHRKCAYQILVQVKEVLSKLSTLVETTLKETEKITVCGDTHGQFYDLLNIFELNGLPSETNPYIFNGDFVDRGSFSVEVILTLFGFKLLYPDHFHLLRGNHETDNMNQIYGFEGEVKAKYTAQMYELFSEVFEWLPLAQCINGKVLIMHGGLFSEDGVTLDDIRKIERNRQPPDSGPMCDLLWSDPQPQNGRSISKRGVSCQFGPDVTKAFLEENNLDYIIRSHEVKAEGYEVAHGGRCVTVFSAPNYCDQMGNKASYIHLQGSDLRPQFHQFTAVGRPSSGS
Sequence of DNA (cytosine-5)-methyltransferase 1 (P26358 whole entry): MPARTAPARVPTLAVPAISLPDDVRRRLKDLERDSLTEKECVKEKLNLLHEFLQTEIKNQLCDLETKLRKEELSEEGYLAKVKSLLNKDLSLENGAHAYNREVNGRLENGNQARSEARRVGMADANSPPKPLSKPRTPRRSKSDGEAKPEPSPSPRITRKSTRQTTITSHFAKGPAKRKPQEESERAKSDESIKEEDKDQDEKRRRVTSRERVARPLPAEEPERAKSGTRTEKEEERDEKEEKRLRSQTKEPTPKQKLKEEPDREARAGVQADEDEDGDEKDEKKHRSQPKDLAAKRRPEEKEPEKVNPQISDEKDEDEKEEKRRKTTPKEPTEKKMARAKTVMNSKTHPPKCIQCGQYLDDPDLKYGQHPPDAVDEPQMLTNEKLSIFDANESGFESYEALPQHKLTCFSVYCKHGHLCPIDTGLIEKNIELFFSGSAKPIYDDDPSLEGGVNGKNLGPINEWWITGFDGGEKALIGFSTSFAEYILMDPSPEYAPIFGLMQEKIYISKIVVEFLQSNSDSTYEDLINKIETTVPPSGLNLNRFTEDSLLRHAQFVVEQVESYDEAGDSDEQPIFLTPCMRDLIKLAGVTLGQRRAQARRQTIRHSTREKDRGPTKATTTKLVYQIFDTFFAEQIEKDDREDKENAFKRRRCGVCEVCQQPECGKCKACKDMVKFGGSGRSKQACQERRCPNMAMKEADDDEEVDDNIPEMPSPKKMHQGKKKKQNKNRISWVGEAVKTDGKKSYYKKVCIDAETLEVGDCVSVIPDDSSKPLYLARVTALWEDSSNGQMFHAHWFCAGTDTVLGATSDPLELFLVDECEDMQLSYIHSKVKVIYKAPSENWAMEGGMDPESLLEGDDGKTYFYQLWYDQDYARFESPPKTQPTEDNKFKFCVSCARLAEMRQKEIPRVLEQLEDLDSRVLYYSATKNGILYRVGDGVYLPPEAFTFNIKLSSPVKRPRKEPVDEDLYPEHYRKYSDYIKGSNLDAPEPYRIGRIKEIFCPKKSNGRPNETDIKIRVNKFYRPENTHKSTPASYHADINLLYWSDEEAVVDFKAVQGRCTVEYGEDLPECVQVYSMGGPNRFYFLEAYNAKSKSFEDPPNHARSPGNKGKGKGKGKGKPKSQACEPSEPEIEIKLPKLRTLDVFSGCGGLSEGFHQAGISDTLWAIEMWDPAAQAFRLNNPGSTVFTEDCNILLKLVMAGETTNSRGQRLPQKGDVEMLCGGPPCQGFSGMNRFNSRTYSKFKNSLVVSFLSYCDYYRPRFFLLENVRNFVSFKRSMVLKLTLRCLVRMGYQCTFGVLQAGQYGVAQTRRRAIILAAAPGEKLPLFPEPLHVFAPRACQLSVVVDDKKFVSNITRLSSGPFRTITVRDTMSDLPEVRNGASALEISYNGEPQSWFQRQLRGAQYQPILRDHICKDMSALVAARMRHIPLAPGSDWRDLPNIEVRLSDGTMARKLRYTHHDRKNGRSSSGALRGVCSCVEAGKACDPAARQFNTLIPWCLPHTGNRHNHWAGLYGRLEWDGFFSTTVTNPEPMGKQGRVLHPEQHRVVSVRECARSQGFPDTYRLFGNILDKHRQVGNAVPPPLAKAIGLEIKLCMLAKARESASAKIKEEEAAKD

Row | Structure (SMILES) | IC50 [1] | IC50 [2] | IC50 [3] | IC50 [4] | IC50 [5] | IC50 [6] | IC50 [7] | IC50 [8] | IC50 [9] | EC50 [10] | EC50 [11] | AC50 (ORF 73) | IC50 [12] | AC50 (DNA topoisomerase)
1 | CC(C)(CS(=O)(=O)[O-])NC(=O)CC[N+](C)(C)CCO | 28.6 µM (active) | 3.6 µM (active) | 10.9 µM (active) | 17.9 µM (active) | 4.28 µM (active) | 4.08 µM (active) | 5.97 µM (active) | > 67 µM (not active) | 2.46 µM (active) | 1.16 µM (active) | 0.67 µM (active) | 39.8 µM (active) | 0.453 µM (active) | –
2 | CCOc1ccc(N2C(=O)CC(N3CCN(c4ccc(C(=O)c5ccncc5)cc4)CC3)C2=O)cc1 (centres undefined) | – | – | – | – | – | – | – | – | – | – | – | – | – | 10.6 µM (active)
